From PubChem BioAssay AID330 (DTP/NCI, 2004)
Several values for one entry are separate records, joined by “and”; a condition that tells them apart may be missing. Identical values can stand only once. Inconclusive results and toxic doses are left out.

System: P388 leukemia ip, CD2F1 mice, survival T/C
Assay: NCI In Vivo Anticancer Drug Screen. Data for tumor model P388 Leukemia (intraperitoneal) in CD2F1 (CDF1) mice
Details: endpoint: median survival time, higher = longer survival
Procedure, shortened: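 Mice carrying the transplanted tumor received test compound or vehicle. Survival was recorded in each group, and the value is the treated-group measurement divided by that of the vehicle-treated control group.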

[1] = dose: 50.0 mg/kg/injection, schedule: Q01DX009 (ip), vehicle: saline with Tween-80
[2] = dose: 100.0 mg/kg/injection, schedule: Q01DX009 (ip), vehicle: saline with Tween-80
[3] = dose: 200.0 mg/kg/injection, schedule: Q01DX009 (ip), vehicle: saline with Tween-80
[4] = dose: 50.0 mg/kg/injection, schedule: Q01DX005 (ip), vehicle: saline with Tween-80
[5] = dose: 100.0 mg/kg/injection, schedule: Q01DX005 (ip), vehicle: saline with Tween-80
[6] = dose: 200.0 mg/kg/injection, schedule: Q01DX005 (ip), vehicle: saline with Tween-80
[7] = dose: 25.0 mg/kg/injection, schedule: Q01DX009 (ip), vehicle: saline with Tween-80
[8] = dose: 60.0 mg/kg/injection, schedule: Q01DX005 (ip), vehicle: Klucel (hydroxypropylcellulose) (HPC)
[9] = dose: 120.0 mg/kg/injection, schedule: Q01DX005 (ip), vehicle: Klucel (hydroxypropylcellulose) (HPC)
[10] = dose: 240.0 mg/kg/injection, schedule: Q01DX005 (ip), vehicle: Klucel (hydroxypropylcellulose) (HPC)
[11] = dose: 50.0 mg/kg/injection, schedule: Q01DX005 (ip), vehicle: Klucel (hydroxypropylcellulose) (HPC)
[12] = dose: 100.0 mg/kg/injection, schedule: Q01DX005 (ip), vehicle: Klucel (hydroxypropylcellulose) (HPC)
[13] = dose: 200.0 mg/kg/injection, schedule: Q01DX005 (ip), vehicle: Klucel (hydroxypropylcellulose) (HPC)
[14] = dose: 6.25 mg/kg/injection, schedule: Q01DX009 (ip), vehicle: saline
[15] = dose: 12.5 mg/kg/injection, schedule: Q01DX009 (ip), vehicle: saline
[16] = dose: 25.0 mg/kg/injection, schedule: Q01DX009 (ip), vehicle: saline
[17] = dose: 50.0 mg/kg/injection, schedule: Q01DX009 (ip), vehicle: saline
[18] = dose: 50.0 mg/kg/injection, schedule: Q04DX003 (ip), vehicle: saline with Tween-80
[19] = dose: 100.0 mg/kg/injection, schedule: Q04DX003 (ip), vehicle: saline with Tween-80
[20] = dose: 200.0 mg/kg/injection, schedule: Q04DX003 (ip), vehicle: saline with Tween-80
[21] = dose: 400.0 mg/kg/injection, schedule: Q04DX003 (ip), vehicle: saline with Tween-80

CN(C)C(C#C[Si](C)(C)C)C1(O)CCCCC1 (centres undefined)
T/C (dose: 100.0 mg/kg/injection, schedule: Q04DX003 (ip), vehicle: saline): 103 % of control
T/C (dose: 200.0 mg/kg/injection, schedule: Q04DX003 (ip), vehicle: saline): 105 % of control
T/C (dose: 400.0 mg/kg/injection, schedule: Q04DX003 (ip), vehicle: saline): 103 % of control

Cc1ccc(S(=O)(=O)Nc2cc(C)cc(CCNC=O)c2C)cc1
T/C [1]: 104 % of control
T/C [2]: 94 % of control
T/C [3]: 99 % of control
T/C (dose: 400.0 mg/kg/injection, schedule: Q01DX009 (ip), vehicle: saline with Tween-80): 94 % of control

O=C1c2cccc3c([N+](=O)[O-])ccc(c23)C(=O)N1CCc1ccccn1
T/C [4]: 101 % of control
T/C [5]: 111 % of control
T/C [6]: 96 % of control

N#Cc1ccc(OCCCCCOc2ccc(C#N)cc2)cc1
T/C [7]: 108 % of control
T/C [1]: 100 % of control
T/C [2]: 97 % of control
T/C [3]: 99 % of control

O=C(O)C#Cc1cccnc1
T/C (dose: 60.0 mg/kg/injection, schedule: Q01DX005 (ip), vehicle: saline with Tween-80): 106 % of control
T/C (dose: 120.0 mg/kg/injection, schedule: Q01DX005 (ip), vehicle: saline with Tween-80): 98 % of control
T/C (dose: 240.0 mg/kg/injection, schedule: Q01DX005 (ip), vehicle: saline with Tween-80): 91 % of control

C=C1C[C@]23C[C@@]1(O)CC[C@H]2[C@]12C=C[C@H](O1)C(C(=O)OCC)=C2[C@@H]3O
T/C [8]: 108 % of control
T/C [9]: 115 % of control
T/C [10]: 120 % of control

COC(=O)c1ccc(O)cc1
T/C (dose: 12.5 mg/kg/injection, schedule: Q01DX005 (ip), vehicle: saline with Tween-80): 98 % of control
T/C (dose: 25.0 mg/kg/injection, schedule: Q01DX005 (ip), vehicle: saline with Tween-80): 99 % of control
T/C [4]: 100 % of control
T/C [5]: 100 % of control
T/C [6]: 105 % of control
T/C (dose: 400.0 mg/kg/injection, schedule: Q01DX005 (ip), vehicle: saline with Tween-80): 100 % of control

CC(=O)Nc1ccc2c(ccc3ccccc32)c1
T/C [7]: 107 % of control
T/C [1]: 113 % of control
T/C [2]: 118 % of control
T/C [3]: 115 % of control

COc1cc2c(c(OC)c1OC)-c1ccc(SC)c(=O)cc1[C@@H](NC(=O)Oc1ccccc1)CC2
T/C (dose: 5.0 mg/kg/injection, schedule: Q01DX009 (ip), vehicle: Klucel (hydroxypropylcellulose) (HPC)): 164 % of control

Cc1ccnc(NCCCNc2nccc(C)n2)n1
T/C [11]: 102 % of control
T/C [12]: 96 % of control
T/C [13]: 88 % of control

C[N+]12CCC34C5=CC(=O)C(=O)C=C5[N+]5(C)C(=O)CC6OCC=C(C1)C(CC32)C6C45 (centres undefined)
T/C (dose: 7.5 mg/kg/injection, schedule: Q01DX005 (ip), vehicle: saline): 102 % of control
T/C (dose: 15.0 mg/kg/injection, schedule: Q01DX005 (ip), vehicle: saline): 104 % of control
T/C (dose: 30.0 mg/kg/injection, schedule: Q01DX005 (ip), vehicle: saline): 97 % of control

Cn1c2ccccc2c(=O)c2cc(NC(=O)CCCCCCCC(=O)Nc3ccc4c(c3)c(=O)c3ccccc3n4C)ccc21
T/C [4]: 92 % of control
T/C [5]: 97 % of control
T/C [6]: 101 % of control

CCC(c1ccccc1)c1cc(C(C)(C)C)cc(C(C)(C)C)c1O (centres undefined)
T/C (dose: 50.0 mg/kg/injection, schedule: Q01DX005 (ip), vehicle: distilled water + alcohol): 100 % of control
T/C (dose: 100.0 mg/kg/injection, schedule: Q01DX005 (ip), vehicle: distilled water + alcohol): 107 % of control
T/C (dose: 200.0 mg/kg/injection, schedule: Q01DX005 (ip), vehicle: distilled water + alcohol): 100 % of control

C[N+](C)(Cc1ccc(Br)cc1)C1c2ccccc2-c2ccccc21
T/C (dose: 12.5 mg/kg/injection, schedule: Q01DX009 (ip), vehicle: Klucel (hydroxypropylcellulose) (HPC)): 107 % of control
T/C (dose: 25.0 mg/kg/injection, schedule: Q01DX009 (ip), vehicle: Klucel (hydroxypropylcellulose) (HPC)): 108 % of control
T/C (dose: 50.0 mg/kg/injection, schedule: Q01DX009 (ip), vehicle: Klucel (hydroxypropylcellulose) (HPC)): 115 % of control and 98 % of control

CCC1(O)C(=O)Nc2ccc(OC)cc2C1=O (centres undefined)
T/C [8]: 97 % of control
T/C [9]: 93 % of control
T/C [10]: 93 % of control

COc1cc(C[C@H]2CC(=O)O[C@@H]2CO)cc(OC)c1OC
T/C (dose: 50.0 mg/kg/injection, schedule: Q04DX002 (ip), vehicle: saline with Tween-80): 101 % of control
T/C (dose: 100.0 mg/kg/injection, schedule: Q04DX002 (ip), vehicle: saline with Tween-80): 99 % of control
T/C (dose: 200.0 mg/kg/injection, schedule: Q04DX002 (ip), vehicle: saline with Tween-80): 96 % of control

COc1ccc([N+](=O)[O-])cc1NC(=O)N(C)Cc1ccco1
T/C [1]: 103 % of control
T/C [2]: 109 % of control
T/C [3]: 106 % of control

CCn1c(=O)c2c(ncn2C)n(C)c1=O
T/C [14]: 100 % of control
T/C [15]: 101 % of control
T/C [16]: 100 % of control
T/C [17]: 100 % of control

Cc1cc(N=C2C=CC(=[N+](C)C)C=C2)c(N)cc1N
T/C [7]: 107 % of control
T/C [1]: 107 % of control

O=c1[nH]c2ccccc2c(=O)n1-c1ccco1
T/C (dose: 100.0 mg/kg/injection, schedule: Q04DX002 (ip), vehicle: saline): 100 % of control
T/C (dose: 200.0 mg/kg/injection, schedule: Q04DX002 (ip), vehicle: saline): 102 % of control
T/C (dose: 400.0 mg/kg/injection, schedule: Q04DX002 (ip), vehicle: saline): 101 % of control

Cc1cc([O-])c([I+]c2ccccc2)c(=O)[nH]1
T/C [11]: 103 % of control
T/C [12]: 110 % of control
T/C [13]: 102 % of control

C[C@@H]1CC2=CC(=O)CC[C@@H]2[C@H]2CC[C@@]3(C)[C@@H](CC[C@]3(C)O)[C@@H]21
T/C [7]: 100 % of control
T/C (dose: 25.0 mg/kg/injection, schedule: Q04DX003 (ip), vehicle: saline with Tween-80): 100 % of control
T/C [1]: 105 % of control
T/C [18]: 91 % of control
T/C [2]: 105 % of control
T/C [19]: 104 % of control
T/C [20]: 100 % of control
T/C [21]: 90 % of control

CC1CCC(C(C)C)C(NC(=O)c2ccccn2)C1 (centres undefined)
T/C (dose: 100.0 mg/kg/injection, schedule: Q04DX002 (ip), vehicle: Klucel (hydroxypropylcellulose) (HPC)): 101 % of control
T/C (dose: 200.0 mg/kg/injection, schedule: Q04DX002 (ip), vehicle: Klucel (hydroxypropylcellulose) (HPC)): 90 % of control
T/C (dose: 400.0 mg/kg/injection, schedule: Q04DX002 (ip), vehicle: Klucel (hydroxypropylcellulose) (HPC)): 97 % of control

Cn1c([N+](=O)[O-])cnc1/C=[N+](\[O-])CCO
T/C [17]: 100 % of control
T/C (dose: 100.0 mg/kg/injection, schedule: Q01DX009 (ip), vehicle: saline): 100 % of control
T/C (dose: 200.0 mg/kg/injection, schedule: Q01DX009 (ip), vehicle: saline): 102 % of control

Nc1nc2c(c(=O)[nH]1)N(C(=O)CCCCCCC(=O)N1c3c(nc(N)[nH]c3=O)NCC1CNc1ccc(C(=O)NC(CCC(=O)O)C(=O)O)cc1)C(CNc1ccc(C(=O)NC(CCC(=O)O)C(=O)O)cc1)CN2 (centres undefined) (tested in a mixture with another compound)
T/C [4]: 100 % of control
T/C [5]: 96 % of control
T/C [6]: 100 % of control

COc1ccc(NNc2ccc(OC)cc2)cc1
T/C [18]: 100 % of control
T/C [19]: 92 % of control
T/C [20]: 92 % of control

CCOc1ccc(CO)cc1
T/C [19]: 120 % of control
T/C [20]: 120 % of control
T/C [21]: 120 % of control

COC1=C(Br)[C@H](O)[C@](O)(CC#N)C=C1Br
T/C [14]: 121 % of control
T/C (dose: 8.75 mg/kg/injection, schedule: Q01DX009 (ip), vehicle: Klucel (hydroxypropylcellulose) (HPC)): 119 % of control
T/C [15]: 123 % of control
T/C [16]: 118 % of control
